The values below come from article PMC11247503 (Journal of Medicinal Chemistry, 2024).

SMILES strings stand for the structures. “Also recorded” adds a separate entry of the source. Structures can show the parent of a compound that is named as a salt. Where two headings read alike, the source gives them in different places. Some results are limits rather than exact numbers.

For data set [1], the target named is T1, mouse Spns2 (Mus musculus, UniProt Q91VM4).
T1 construct: expressed in transfected cells; host or cells: HeLa cells (G418-resistant pools)
T1 sequence (Q91VM4 1-549): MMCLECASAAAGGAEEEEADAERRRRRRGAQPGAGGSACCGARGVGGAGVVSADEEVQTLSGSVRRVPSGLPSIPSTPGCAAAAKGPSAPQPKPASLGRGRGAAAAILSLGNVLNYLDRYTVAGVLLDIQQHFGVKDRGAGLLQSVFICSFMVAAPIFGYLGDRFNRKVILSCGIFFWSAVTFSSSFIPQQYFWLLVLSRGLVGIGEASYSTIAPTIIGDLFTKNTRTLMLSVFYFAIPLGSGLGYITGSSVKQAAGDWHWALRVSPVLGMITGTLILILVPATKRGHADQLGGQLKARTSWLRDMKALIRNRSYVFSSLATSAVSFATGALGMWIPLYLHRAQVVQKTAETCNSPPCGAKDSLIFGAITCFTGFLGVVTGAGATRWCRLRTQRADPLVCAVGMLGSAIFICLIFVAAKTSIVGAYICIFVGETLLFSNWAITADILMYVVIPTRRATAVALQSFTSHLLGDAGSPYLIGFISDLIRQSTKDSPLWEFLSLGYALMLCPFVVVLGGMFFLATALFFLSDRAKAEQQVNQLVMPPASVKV
The data set is described as follows: HeLa cell S1P release assay (Spns2 inhibition). It counts as cell-based. To be noted: for inhibition at 1 µM: HeLa, read-out: %Inhib. (Spns2 inhibition, percent decrease in S1P secretion relative to control); for inhibition at 1 µM / %Inhib. (Spns2 inhibition, percent decrease in S1P secretion relative to control): 1 μM inhibitor, HeLa cells, S1P in media by LC-MS/MS; for %Inhib. (Spns2 inhibition, percent decrease in S1P secretion relative to control): 1 µM. How it is done:
With a library of analogs of SLB1122168 containing phenylurea, phenylcarbamate, and benzamide as bioisostere of the benzoxazole, we investigated their potential in inhibiting S1P transport using a HeLa cell assay.[36]−[38],[43] Briefly, in this assay, Spns2 is overexpressed whereas the S1P-degrading enzymes (lyase or phosphatases) were blocked with inhibitors.[44],[45] Inhibition of S1P transport is determined by measuring the amount of S1P in the buffer using LC-MS.
This assay was conducted as reported by Kharel et al.[43] Briefly, compounds were assessed in a HeLa cell assay at a 1 μM test concentration, unless noted otherwise. HeLa cells were transfected with a pcDNA3.1 plasmid encoding mouse Spns2, and pools of cells resistant to G418 were selected. S1P catabolic pathways were suppressed by the addition of 4-deoxypyridoxine (1 mM), NaF (2 mM), and Na3VO4 (0.2 mM). After growing cells to near confluence on 12-well tissue culture dishes, growth media was removed, inhibitors were introduced in release media (serum free medium containing 0.2% fatty acid free BSA), and the cells were incubated for 16–18 h at 37 °C. The BSA with bound S1P was concentrated from the release media by TFA-driven precipitation after addition of the d7-S1P internal standard, the S1P extracted from the protein pellet, and quantified by LC-MS/MS. Lower levels of S1P release into the media indicated greater degrees of Spns2 inhibition. Inhibition is reported as the percent decrease in S1P release relative to the control where no inhibitor was introduced.

A short description of data set [2]: Compound concentrations in plasma of mice after oral dose. It is filed as in vivo, mice (C57BL/6j). How it is done: We next investigated the potential oral bioavailability of 11i (SLF80821178), which will be a significant advantage over SLB1122168. […] Thus, mice were administered a single 10 mg/kg oral dose of 11i, and compound levels in plasma were quantified.
Figure 7 Compound concentrations in plasma of mice treated with 11i. Three C57BL/6j strain female mice (8–10 weeks old) were treated with a single 10 mg/kg dose of 11i administered PO. Blood samples were collected, and plasma 11i levels were quantified via LC-MS/MS.
Compounds that performed well in the HeLa cell assay were subsequently administered to mice (C57BL/6j strain). Inhibitor (10 mg/kg) or an equivalent dose of vehicle (36.1% PEG400/9.1% ethanol/4.6% solutol/50% H2O) was administered to animals via an intraperitoneal injection or oral gavage. After 6 to 16 h, blood samples were collected. Lymphocyte counts were obtained from 20 μL of mouse blood using a Heska HT5 Element blood analyzer. Plasma S1P concentrations were determined using LC-MS/MS. All animal protocols were approved prior to experimentation by the University of Virginia School of Medicine’s Animal Care and Use Committee.

In data set [3] the test system is circulating lymphocytes. The data set is described as follows: Circulating lymphocyte counts in mice. It is filed as in vivo, mice (C57BL/6j). How it is done:
(§1) To determine the effect of 11iin vivo, mice were treated with 3, 10, and 30 mg/kg intraperitoneally, and the amount of circulating lymphocytes was quantified. A hallmark of Spns2 inhibition is the decrease in lymphocytes counts, which is a pharmacodynamic marker of target engagement.[54],[55] […] To determine whether blood S1P levels were affected, plasma S1P concentrations were measured via LC-MS. […] The extent by which Spns2 inhibition by knockout or a pharmacological inhibitor affects the S1P level remains unclear. A range of changes from no significant difference[30]−[32] to 45% reduction in plasma S1P levels compared to wild type littermates have been reported.[9],[24],[28],[33]
(§2) Figure 8 Biological evaluation of 11i in five C57BL/6j strain female mice (8–10 weeks old). […] Blood was drawn 4 h postdose. (B) Plasma S1P concentrations in mice treated with 11i are shown relative to vehicle 6 h following IP administration at 3 mg/kg, 10 mg/kg, and 30 mg/kg. […] Blood was drawn 4 h postdose. (D) Plasma S1P concentrations in mice treated with 11i are shown relative to vehicle 4 h post oral administration at 10 mg/kg, 30 mg/kg, and 100 mg/kg. […]
(§3) Compounds that performed well in the HeLa cell assay were subsequently administered to mice (C57BL/6j strain). […] Plasma S1P concentrations were determined using LC-MS/MS. […]

For data set [4], the system named is plasma S1P. Briefly: Plasma S1P concentrations in mice. It counts as in vivo, mice (C57BL/6j). How it is done: as §1, §2, §3
Details of data set [5]: method as in PMID 37010497. To be noted: cited from earlier work.
Data set [6] deals with mice. On the set-up: method as in PMID 35609189. The note with it: dose 30 mg/kg; cited from earlier work.
The subject of data set [7] is kidney fibrosis. Also noted: method as in PMID 35976996. The note with it: unilateral ischemia-reperfusion injury; cited from earlier work.
Data set [8] has as its target T1, mouse Spns2. The note with it: read-out: IC50 (Spns2 inhibition); cited from earlier work.

A word on the inhibition: it is how much of the control response was suppressed. As a reminder, the IC50 is the point on the concentration scale where inhibition reaches its midpoint. As a reminder, the Tmax is the time at which the peak concentration occurs. Regarding `CCCCCCCCCCc1ccc(NC(=O)N2CCNCC2)cc1.Cl` [11i, N-(4-Decylphenyl)piperazine-1-carboxamide Hydrochloride], the inhibition at 1 µM in data set [1] was at least 80%. Moreover, the half-inhibitory concentration (IC50) in data set [1] (dose-response 1 nM to 10 μM, HeLa cells transfected with Spns2, read-out: IC50, inhibition of S1P release from HeLa cells) was 0.051 ± 0.003 µM. Further, in data set [2] (10 mg/kg PO), the oral bioavailability entry is listed as “orally bioavailable”. Further, the time of peak concentration (Tmax) in data set [2] (female, C57BL/6j, mouse, single 10 mg/kg PO, plasma, read-out: tmax (time of maximum circulating level)) came to 4 h. Besides, in data set [2] (single 10 mg/kg PO, plasma), the “compound exposure at tmax (maximum plasma concentration)” value was 1.2 µM and the “time circulating levels remained elevated above 0.5 μM” value is on record as “more than 8 h”. Moreover, the “decrease in lymphocyte count, maximum level” value in data set [3] (IP 3, 10 and 30 mg/kg, blood 4 h postdose) came to 50%. Moreover, the “reduction in circulating lymphocyte counts” value in data set [3] (route not stated at this place (abstract)) was around 50%. Moreover, in data set [4] (IP 3, 10 and 30 mg/kg, 6 h), the “change in plasma S1P levels” value is listed as “no change”. Further, the “change in plasma S1P levels” value in data set [4] (PO 10, 30 and 100 mg/kg, 4 h) was “no change”.

Consider `CCCCCCCCCCc1ccc(NC(=O)N2CCN[C@H](C)C2)cc1` [(R)-11l, (R)-N-(4-Decylphenyl)-3-methylpiperazine-1-carboxamide Hydrochloride], for which, in data set [1], the inhibition at 1 µM is at least 80%.

For the compound `CCCCCCCCCCc1ccc(C(=O)N(C)[C@@H]2CCNC2)cc1` [(R)-13b, (R)-4-Decyl-N-methyl-N-(pyrrolidin-3-yl)benzamide Hydrochloride], in data set [1], the inhibition at 1 µM amounted to 21 ± 1%.

In the case of `CCCCCCCCCCc1ccc(C(=O)N(C)[C@@H]2CCCNC2)cc1` [(R)-13c, (R)-4-Decyl-N-Methyl-N-(piperidin-3-yl)benzamide Hydrochloride], the inhibition at 1 µM in data set [1] was found to be 51 ± 2%.

As for `CCCCCCCCCCc1ccc(C(=S)N[C@@H]2CCNC2)cc1` [(R)-15b, (R)-4-Decyl-N-(pyrrolidin-3-yl)benzothioamide Hydrochloride], in data set [1], the inhibition at 1 µM is 33 ± 3%.

`CCCCCCCCCCc1ccc(C(=S)N[C@@H]2CCCNC2)cc1` [(R)-15c, (R)-4-Decyl-N-(piperidin-3-yl)benzothioamide Hydrochloride]: the inhibition at 1 µM in data set [1] was found to be 47%.

Turning to `CCCCCCCCCCc1ccc(C(=O)N[C@H]2CCNC2)cc1.Cl` [(S)-4d, (S)-4-Decyl-N-(pyrrolidin-3-yl)benzamide Hydrochloride], in data set [1], the “%Inhib. (Spns2 inhibition, percent decrease in S1P secretion relative to control)” value is given as 61 ± 5% and the inhibition at 1 µM was 61 to 66%.

With `CCCCCCCCCCc1ccc(C(=O)N[C@H]2CCCNC2)cc1` [(S)-4f, (S)-4-Decyl-N-(piperidin-3-yl)benzamide Hydrochloride], in data set [1], the inhibition at 1 µM is 20 ± 3%.

With `CCCCCCCCCCc1ccc(C(=O)N2CCN[C@@H](C)C2)cc1.Cl` [(S)-4i, (S)-(4-Decylphenyl)(3-methylpiperazin-1-yl)methanone Hydrochloride], the “%Inhib. (Spns2 inhibition, percent decrease in S1P secretion relative to control)” value was 44 ± 1% in data set [1] and 68% in data set [1] (listed as 4i).

As to `CCCCCCCCCCc1ccc(NC(=O)O[C@H]2CCNC2)cc1` [(S)-8c, (S)-Pyrrolidin-3-yl (4-Decylphenyl)carbamate Hydrochloride], the inhibition at 1 µM in data set [1] amounted to 46%.

Take `CCCCCCCCCCc1ccc(NC(=O)O[C@H]2CCCNC2)cc1` [(S)-8e, (S)-Piperidin-3-yl (4-Decylphenyl)carbamate Hydrochloride]: the inhibition at 1 µM in data set [1] amounted to 48 ± 2%.

With `CCCCCCCCCCc1ccc(NC(=O)N[C@H]2CCNC2)cc1` [(S)-11d, (S)-1-(4-Decylphenyl)-3-(pyrrolidin-3-yl)urea Hydrochloride], the inhibition at 1 µM in data set [1] worked out at 44 ± 2%.

Consider `CCCCCCCCCCc1ccc(NC(=O)N[C@H]2CCCNC2)cc1` [(S)-11f, (S)-1-(4-Decylphenyl)-3-(piperidin-3-yl)urea Hydrochloride], for which, in data set [1], the inhibition at 1 µM came to 78 ± 4%.

Turning to `CCCCCCCCCCc1ccc2nc(NC[C@H]3CCNC3)oc2c1.Cl` [SLB1122168], the inhibition at 1 µM in data set [1] is 85 ± 2%. In data set [5], the oral bioavailability entry is listed as “not orally bioavailable; also recorded: poor oral bioavailability”.

With `CCCCCCCCCCc1ccc(-c2noc(CCCN)n2)cc1.Cl` [SLF1081851], in data set [1], the inhibition at 1 µM came out at 44 ± 5%. Moreover, in data set [6], the toxicity to mice entry is “toxic”. Further, the “effect on kidney fibrosis” value in data set [7] is “ameliorated kidney fibrosis”.

As to `CCCCCCCCCCc1ccc(-c2cn(CC)c(CCCN)n2)cc1` [SLF80721166], the 50% inhibitory concentration (IC50) in data set [8] was 1.4 ± 0.3 µM.
